The test relates to HCT116 MTAP-deleted cell lines. Description: Cell viability assay (CellTiter-Glo, 7 days), HCT116 MTAP-deleted. The test is classed as cell-based. The note with it: Homo sapiens, HCT-116; cell viability assay, HCT116 MTAP-deleted; class symbols; read-out: CC50. The procedure, abridged:
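Read-out was CellTiter-Glo luminescence after a 7-day incubation (37 °C, 5% CO2) of HCT116 cells, MTAP-deleted or WT, on dose-response compound plates. CC50 values come from each line; where marked *, selectivity is overstated because poor solubility impaired the WT CC50 measurement.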

For `Nc1nc2ccc(C(=O)N3CCC[C@@H]4Oc5c(ccc(OC(F)(F)F)c5F)[C@@H]43)cc2n2cncc12` [Ff-381, (4-aminoimidazo[1,5-a]quinoxalin-8-yl)((4aS,9bS)-6-fluoro-7-(trifluoromethoxy)-3,4,4a,9b-tetrahydrobenzofuro[3,2-b]pyridin-1(2H)-yl)methanone], the CC50 is below 0.1 µM.
Turning to `Cc1ncn2c1c(N)nc1cc(F)c(C(=O)N(C)[C@@H]3COc4cc(C(C)(F)F)ccc43)cc12` [Ff-382, (S)-4-amino-N-(6-(1,1-difluoroethyl)-2,3-dihydrobenzofuran-3-yl)-7-fluoro-N,3-dimethylimidazo[1,5-a]quinoxaline-8-carboxamide], the CC50 was below 0.1 µM.
To `Nc1nc2ccc(C(=O)N3CCC[C@@H]4Oc5cc(OC(F)(F)F)ccc5[C@@H]43)cc2n2cncc12` [Ff-383, (4-aminoimidazo[1,5-a]quinoxalin-8-yl)((4aS,9bS)-7-(trifluoromethoxy)-3,4,4a,9b-tetrahydrobenzofuro[3,2-b]pyridin-1(2H)-yl)methanone] belongs below 0.1 µM; to `C[C@H]1CC2Oc3cc(C(F)(F)F)ccc3C2N(C(=O)c2cc3c(cn2)nc(N)c2cncn23)C1` (stereo partly drawn) [Ff-386, (4-aminoimidazo[1,5-a]pyrido[3,4-e]pyrazin-8-yl)((3S)-3-methyl-7-(trifluoromethyl)-3,4,4a,9b-tetrahydrobenzofuro[3,2-b]pyridin-1(2H)-yl)methanone], below 0.1 µM; to `Cc1ncc2c(N)nc3cnc(C(=O)N4C[C@H](C)C[C@@H]5Oc6c(ccc(C(F)(F)F)c6F)[C@@H]54)cc3n12` [Ff-388, (4-amino-1-methylimidazo[1,5-a]pyrido[3,4-e]pyrazin-8-yl)((3R,4aS,9bS)-6-fluoro-3-methyl-7-(trifluoromethyl)-3,4,4a,9b-tetrahydrobenzofuro[3,2-b]pyridin-1(2H)-yl)methanone], below 0.1 µM.
To `Nc1nc2ccc(C(=O)N3CCC[C@@H]4Oc5cc(C(F)(F)F)c(F)cc5[C@@H]43)cc2n2cncc12` [Ff-389, (4-aminoimidazo[1,5-a]quinoxalin-8-yl)((4aS,9bS)-8-fluoro-7-(trifluoromethyl)-3,4,4a,9b-tetrahydrobenzofuro[3,2-b]pyridin-1(2H)-yl)methanone] belongs below 0.1 µM; to `Nc1nc2cc(F)c(C(=O)N3CC(C(F)(F)F)OCC3c3ccc(C(F)(F)F)cn3)cc2n2cncc12` (centres unmarked) [Ff-401], 0.1 to 1 µM; to `Nc1nc2cc(F)c(C(=O)N3CCC(F)(F)C[C@@H]3c3ccc(OC(F)(F)F)cc3)cc2n2cncc12` [Ff-403, (R)-(4-amino-7-fluoroimidazo[1,5-a]quinoxalin-8-yl)(4,4-difluoro-2-(4-(trifluoromethoxy)phenyl)piperidin-1-yl)methanone], 0.1 to 1 µM.
As to `Nc1nc2cc(F)c(C(=O)N3CCCC[C@@H]3c3ccc(S(F)(F)(F)(F)F)cc3)cc2n2cncc12` [Ff-404, (R)-(4-amino-7-fluoroimidazo[1,5-a]quinoxalin-8-yl)(2-(4-(pentafluoro-λ^6-sulfaneyl)phenyl)piperidin-1-yl)methanone], the CC50 is below 0.1 µM.
To `Nc1nc2cc(F)c(C(=O)N3CCC(F)(F)C[C@@H]3c3ccc(S(F)(F)(F)(F)F)cc3)cc2n2cncc12` [Ff-405, (R)-(4-amino-7-fluoroimidazo[1,5-a]quinoxalin-8-yl)(4,4-difluoro-2-(4-(pentafluoro-λ^6-sulfaneyl)phenyl)piperidin-1-yl)methanone] belongs below 0.1 µM.
As for `C[C@H]1CN(C(=O)c2cc3c(cc2Cl)nc(N)c2cncn23)[C@H]2c3ccc(C(F)(F)F)cc3C[C@H]2O1` [Ff-406, (4-amino-7-chloroimidazo[1,5-a]quinoxalin-8-yl)((2S,4aS,9aR)-2-methyl-7-(trifluoromethyl)-2,3,9,9a-tetrahydroindeno[2,1-b][1,4]oxazin-4(4aH)-yl)methanone], the CC50 is below 0.1 µM.
To `Nc1nc2ccc(C(=O)N(Cc3ccc(C(F)(F)F)cc3F)C3CCC3)cc2n2cncc12` [Ff-408, 4-amino-N-cyclobutyl-N-[[2-fluoro-4-(trifluoromethyl)phenyl]methyl]imidazo[1,5-a]quinoxaline-8-carboxamide] belongs below 0.1 µM.
Under `CN(Cc1ccc(C(F)(F)F)cc1C(F)(F)F)C(=O)c1ccc2nc(N)c3cncn3c2c1` [Ff-409, 4-amino-N-[[2,4-bis(trifluoromethyl)phenyl]methyl]-N-methyl-imidazo[1,5-a]quinoxaline-8-carboxamide] stands 0.1 to 1 µM; under `CN(Cc1ccc(C(F)(F)F)cc1F)C(=O)c1ccc2nc(N)c3cncn3c2c1` [Ff-411, 4-amino-N-[[2-fluoro-4-(trifluoromethyl)phenyl]methyl]-N-methyl-imidazo[1,5-a]quinoxaline-8-carboxamide], 0.1 to 1 µM; under `Cc1nn(C)cc1N(Cc1ccc(C(F)(F)F)cc1F)C(=O)c1cc2c(cc1F)nc(N)c1cncn12` [Ff-413, 4-amino-N-(1,3-dimethylpyrazol-4-yl)-7-fluoro-N-[[2-fluoro-4-(trifluoromethyl)phenyl]methyl]imidazo[1,5-a]quinoxaline-8-carboxamide], below 0.1 µM.
For `Cc1c(N(Cc2ccc(C(F)(F)F)cc2F)C(=O)c2cc3c(cc2F)nc(N)c2cncn23)cnn1C` [Ff-414, 4-amino-N-(1,5-dimethylpyrazol-4-yl)-7-fluoro-N-[[2-fluoro-4-(trifluoromethyl)phenyl]methyl]imidazo[1,5-a]quinoxaline-8-carboxamide], the CC50 is below 0.1 µM.
As to `Nc1nc2cc(F)c(C(=O)N(Cc3ccc(C(F)(F)F)cn3)C3CC(F)(F)C3)cc2n2cncc12` [Ff-415, 4-amino-N-(3,3-difluorocyclobutyl)-7-fluoro-N-[[5-(trifluoromethyl)-2-pyridyl]methyl]imidazo[1,5-a]quinoxaline-8-carboxamide], the CC50 is below 0.1 µM.
Under `C[C@H](c1ncccn1)N(Cc1ccc(C(F)(F)F)cc1F)C(=O)c1cc2c(cc1F)nc(N)c1cncn12` [Ff-416, 4-amino-7-fluoro-N-[[2-fluoro-4-(trifluoromethyl)phenyl]methyl]-N-[(1R)-1-pyrimidin-2-ylethyl]imidazo[1,5-a]quinoxaline-8-carboxamide] stands below 0.1 µM.
To `Cc1nn(C)c(C)c1N(Cc1ccc(C(F)(F)F)cc1F)C(=O)c1cc2c(cc1F)nc(N)c1cncn12` [Ff-417, 4-amino-7-fluoro-N-[[2-fluoro-4-(trifluoromethyl)phenyl]methyl]-N-(1,3,5-trimethylpyrazol-4-yl)imidazo[1,5-a]quinoxaline-8-carboxamide] belongs below 0.1 µM; to `C[C@H](C#N)N(Cc1ccc(C(F)(F)F)cc1F)C(=O)c1cc2c(cc1F)nc(N)c1cncn12` [Ff-418, 4-amino-N-[(1R)-1-cyanoethyl]-7-fluoro-N-[[2-fluoro-4-(trifluoromethyl)phenyl]methyl]imidazo[1,5-a]quinoxaline-8-carboxamide], 0.1 to 1 µM; to `COC[C@@H](C)N(Cc1ccc(C(F)(F)F)cc1F)C(=O)c1cc2c(cc1F)nc(N)c1cncn12` [Ff-419, 4-amino-7-fluoro-N-[[2-fluoro-4-(trifluoromethyl)phenyl]methyl]-N-[(1R)-2-methoxy-1-methyl-ethyl]imidazo[1,5-a]quinoxaline-8-carboxamide], below 0.1 µM.
For `C[C@H](C(N)=O)N(Cc1ccc(C(F)(F)F)cc1F)C(=O)c1cc2c(cc1F)nc(N)c1cncn12` [Ff-420, 4-amino-N-[(1R)-2-amino-1-methyl-2-oxo-ethyl]-7-fluoro-N-[[2-fluoro-4-(trifluoromethyl)phenyl]methyl]imidazo[1,5-a]quinoxaline-8-carboxamide], the CC50 is 0.1 to 1 µM.
Under `Cn1cc(N(Cc2ccc(C(F)(F)F)cc2F)C(=O)c2cc3c(cc2F)nc(N)c2cncn23)c(Cl)n1` [Ff-421, 4-amino-N-(3-chloro-1-methyl-pyrazol-4-yl)-7-fluoro-N-[[2-fluoro-4-(trifluoromethyl)phenyl]methyl]imidazo[1,5-a]quinoxaline-8-carboxamide] stands below 0.1 µM; under `COc1nn(C)cc1N(Cc1ccc(C(F)(F)F)cc1F)C(=O)c1cc2c(cc1F)nc(N)c1cncn12` [Ff-422, 4-amino-7-fluoro-N-[[2-fluoro-4-(trifluoromethyl)phenyl]methyl]-N-(3-methoxy-1-methyl-pyrazol-4-yl)imidazo[1,5-a]quinoxaline-8-carboxamide], below 0.1 µM; under `Nc1nc2cc(F)c(C(=O)N(Cc3ccc(C(F)(F)F)cn3)c3cnn4ccccc34)cc2n2cncc12` [Ff-423, 4-amino-7-fluoro-N-pyrazolo[1,5-a]pyridin-3-yl-N-[[5-(trifluoromethyl)-2-pyridyl]methyl]imidazo[1,5-a]quinoxaline-8-carboxamide], below 0.1 µM.
Under `Nc1nc2cc(F)c(C(=O)N(Cc3ccc(C(F)(F)F)cc3F)c3cnn4ccccc34)cc2n2cncc12` [Ff-424, 4-amino-7-fluoro-N-[[2-fluoro-4-(trifluoromethyl)phenyl]methyl]-N-pyrazolo[1,5-a]pyridin-3-yl-imidazo[1,5-a]quinoxaline-8-carboxamide] stands below 0.1 µM.
Under `CN(C(=O)c1cc2c(cc1F)nc(N)c1cncn12)C1CCCc2cc(Cl)ccc21` (centres unmarked) [Ff-425, 4-amino-N-(6-chloro-1,2,3,4-tetrahydronaphthalen-1-yl)-7-fluoro-N-methylimidazo[1,5-a]quinoxaline-8-carboxamide] stands 0.1 to 1 µM; under `CN(C(=O)c1cc2c(cc1F)nc(N)c1cncn12)C1CCc2sccc21` (centres unmarked) [Ff-426, 4-amino-N-(5,6-dihydro-4H-cyclopenta[b]thiophen-4-yl)-7-fluoro-N-methyl-imidazo[1,5-a]quinoxaline-8-carboxamide], 0.1 to 1 µM; under `CN(Cc1ccc([C@@H]2C[C@H]2c2ccn(C(F)F)n2)cn1)C(=O)c1cc2c(cc1F)nc(N)c1cncn12` [Ff-428, 4-amino-N-[[5-[(1R,2R)-2-[1-(difluoromethyl)pyrazol-3-yl]cyclopropyl]-2-pyridyl]methyl]-7-fluoro-N-methyl-imidazo[1,5-a]quinoxaline-8-carboxamide], 0.1 to 1 µM.

The values above are taken from patent publication US12448388B2, “PRMT5 inhibitors and uses thereof” (Gilead Sciences, Inc., priority 2023, dated 2025).
